ChEMBL document CHEMBL1128296, “Quantitative binding site model generation: compass applied to multiple chemotypes targeting the 5-HT1A receptor” (J Med Chem, 1995)

Experiment: Tested for activity against 5-hydroxytryptamine 1A receptor from bovine hippocampus

Row | SMILES | Ki [nM]
1 | C=CCN1CC[C@H]2c3ccccc3CC[C@H]21 | 31
2 | COc1cccc2c1CC[C@@H]1[C@@H]2CCN1CC1CC1 | 66
3 | C=CCN1C[C@H]2c3c(O)cccc3CC[C@H]21 | 0.3
4 | COc1cccc2c1C[C@H]1CCN(CC3CC3)[C@@H]1C2 | 29
5 | C=CCN1CC[C@@H]2c3ccccc3CC[C@H]21 | 11
6 | COc1cccc2c1C[C@H]1CCN(Cc3ccccc3)[C@@H]1C2 | 127
7 | CCCN1CC[C@H]2c3c(cccc3OC)CC[C@H]21 | 186
8 | CCCN1CC[C@H]2c3ccccc3CC[C@H]21 | 37
9 | CCCN1CC[C@@H]2c3ccccc3CC[C@H]21 | 44
10 | COc1cccc2c1C[C@H]1CCN[C@@H]1C2 | 29
11 | C=CCN1C[C@H]2c3c(cccc3OC)CC[C@H]21 | 5.9
12 | COc1cccc2c1C[C@H]1CCN(CC3CC3)[C@H]1C2 | 721
